Results on five compounds are retold here after patent US20250381256A1 (priority 2022, published 2025).

One data set deals with OVA323-339. Put plainly: Anti-OVA antibody responses after sublingual nanofiber immunization of mice. The class given is in vivo.
In data set [1] the test system is 1:1:1 mixture of plreA, plutA, and plroN. Put plainly: Urinary antibody ELISA on undiluted urine of immunized mice. As to conditions: one nanofiber and three nanofiber groups combined. Background: In an ELISA, binding on a coated surface is turned into a signal by an enzyme label.
Procedure: Animals and Immunizations. […] Murine immunizations were initiated with female C57BL/6 mice (Envigo) aged 9-12 weeks. For sublingual immunizations, mice were deeply anesthetized by a cocktail delivering 100 mg/kg ketamine and 10 mg/kg xylazine. For droplet immunizations, a micropipette with a 20 μL tip was used to apply 8 μL of the immunizing solution below the tongue. For tablet immunizations, the tablet was placed below the tongue of anesthetized mice using tweezers. For droplet and tablet immunizations, the mouse's heads were placed in anteflexion for 20 min following administration to prevent swallowing of the material.
Measurement of Antibody Responses. Serum was collected via the submandibular vein. For analysis of epitope-specific IgG by ELISA, plates were coated with 20 μg/mL of streptavidin (Millipore Sigma, 189730) overnight at 4° C. Plates were washed with 0.5 g/L Tween-20 in PBS (1×PBST), coated for 1 hour with 20 μg/mL biotinylated plreA, pluta, or plroN, and blocked with Super Block Blocking Buffer (Thermo Scientific, 37515). […] Sera diluted in PBST-BSA or undiluted urine were added to the plate, and antigen-specific IgG was detected by horseradish peroxidase (HRP) conjugated Fcγ fragment specific goat anti-mouse IgG (Jackson Immuno Research, 15-035-071). […]
The subject of a further data set is gut microbiome. The experiment in a line: Microbiome analysis of fecal pellets (16S rRNA sequencing). The class given is in vivo, C57BL/6 mice. As for the experimental part: Microbiome Analysis. Fecal pellets were collected from mice and immediately frozen on dry ice prior to storage at −80° C. Samples were submitted to the Duke Center for Genomic and Computational Biology Microbiome Shared Resource core for microbiome analyses. In brief, the Duke Microbiome Core Facility (MCF) extracted DNA using the Qiagen PowerSoilPro DNA Kit (Qiagen, 47014). Bacterial community composition in isolated DNA samples was characterized by amplification of the V4 variable region of the 16S rRNA gene by polymerase chain reaction using the forward primer 515 and reverse primer 806 following the Earth Microbiome Project protocol (http://www.earthmicrobiome.org/). These primers (515F and 806R) carry unique barcodes that allow for multiplexed sequencing. Concentration of the PCR products were accessed using a Qubit dsDNA HS assay kit (ThermoFisher, Q32854) and a Promega GloMax plate reader. Equimolar 16S rRNA PCR products from all samples were pooled prior to sequencing, which was performed by the Duke Sequencing and Genomic Technologies (SGT) shared resource on an Illumina MiSeq instrument configured for 250 base-pair paired-end sequencing runs.
Sequences were analyzed using QIIME2 software. Demultiplexed forward reads were assigned a cut off between 10-230 bp and reverse reads were assigned a cut off between 10-160 bp. […]

The test system of data set [2] is CFT073 uropathogenic E. coli. Put plainly: Transurethral infection model with CFT073. As to conditions: 5×10^7 CFU CFT073, vs control OVA vaccine.
Procedure: Bacterial Culture and Challenge Model. The uropathogenic E. coli strain CFT073 was purchased from ATCC (700928); this strain was originally isolated from a pyelonephritis patient. CFT073 was cultured at 37° C. with aeration in Luria broth (10 g/L tryptone, 5 g/L yeast extract, 10 g/L sodium chloride) at a 1:100 dilution from a starter culture.
For the transurethral infection model, water supply was removed from cages for one hour prior to infection to allow for voiding of bladder. Mice were sedated with an i.p. injection of a ketamine/xylazine cocktail and a sterilized plastic needle dabbed in surgical lubricant was used to deliver 5×10^7 CFU of CFT073 into the urethra. Mice were monitored as for the bacteremia model, but with sacrifice at 48 h.
A short description of data set [3]: Nanofiber structure after freeze-drying, tabletization and dissolution (atomic force microscopy). The class given is physicochemical. Conditions: various levels of cryoprotectant sugars. As for the experimental part: FIG. 16. SIMPL tablets incorporating Coil29-based nanofibers. Top panel: epitope-containing peptide nanofibers were assembled in buffer, then cryoprotectant sugars were added, and tablets were formed by freeze drying. Bottom panel: Tablets were stable enough for handling (left), and Coil29 nanofibers retained their structure after freeze-drying, tabletization, and dissolution (images by atomic force microscopy).

The target of another data set is T1, I-Ab (Mus musculus, UniProt P14434+P14483).
T1 sequence (P14434 24-256): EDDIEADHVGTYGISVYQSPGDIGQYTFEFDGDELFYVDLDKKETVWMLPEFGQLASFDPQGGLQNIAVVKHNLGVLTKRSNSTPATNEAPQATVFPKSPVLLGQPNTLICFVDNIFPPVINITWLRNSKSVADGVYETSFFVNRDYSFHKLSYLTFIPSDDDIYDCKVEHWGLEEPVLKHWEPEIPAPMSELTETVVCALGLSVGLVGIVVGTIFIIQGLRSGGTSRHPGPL
T1 sequence (P14483 28-265): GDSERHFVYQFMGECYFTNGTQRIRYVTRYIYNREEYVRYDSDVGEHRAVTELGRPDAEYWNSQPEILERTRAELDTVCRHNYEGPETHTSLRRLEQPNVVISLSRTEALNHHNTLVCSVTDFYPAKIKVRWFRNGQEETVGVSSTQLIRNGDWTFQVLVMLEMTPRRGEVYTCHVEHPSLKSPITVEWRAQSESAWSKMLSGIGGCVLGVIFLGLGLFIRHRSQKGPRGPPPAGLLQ
As to conditions: haplotype of C57BL/6 mice; read-out: Reported affinity for I-Ab; cited from earlier work.

“Also recorded” adds a separate entry of the source. Square brackets hold non-standard residues; d marks the D form. Ends that are not written are not given here. Cha = N[C@@H](CC1CCCCC1)C(=O)O

Turning to `Nc1ncnc2c1ncn2[C@@H]1O[C@@H]2COP(=O)(O)O[C@H]3[C@@H](O)[C@H](n4cnc5c(N)ncnc54)O[C@@H]3COP(=O)(O)O[C@H]2[C@H]1O` [cyclic-di-AMP], the “Serum IgG titers at reduced adjuvant dose” value in the data set on OVA323-339 (1 μg c-di-AMP with 8 μL of 5 mM OVA-Coil29, sublingual) is “equivalent titers to 10 times that dose; also recorded: sufficient to raise strong titers”. The “Epitope-specific IgA levels in the urine, adjuvant comparison” value in data set [1] (cyclic-di-AMP vs CTB (p=0.038)) is “significantly higher epitope-specific IgA levels in the urine than CTB”. Also, the “Epitope-specific IgG levels in the urine, adjuvant comparison” value in data set [1] (cyclic-di-AMP vs CTB (p=0.38)) was “did not differ significantly”.
Take `C[C@@H]1O[C@@H]1P(=O)(O)O` [Fosfomycin]: the “OTU richness of the microbiome” value in the data set on gut microbiome (week 13 (vaccine) or week 13.5 (after 3 daily doses of 1000 mg/kg Fosfomycin)) is reported as “drastically reduced”. Besides, the “Shannon diversity index (α-diversity)” value in the data set on gut microbiome (week 13 (vaccine) or week 13.5 (antibiotic)) was “highly significantly different from these groups”. Besides, the “Body temperature after transurethral challenge” value in data set [2] is on record as “maintained significantly higher temperatures than mice given the control vaccine”.
On to “QARILEADAEILRAYARILEAHAEILRAQ (Ac-QARILEADAEILRAYARILEAHAEILRAQ-NH2) [Coil29]”, for which the “Nanofibrillar structure in tablets” value in data set [3] is listed as “retained their nanofibrillar structure”. In addition, in the data set with OVA323-339 (SIMPL tablets, range of peptide and cryoprotectant sugar concentrations, 10 μg c-di-AMP), the “Sublingual immunogenicity after tabletization” value is “sublingually immunogenic”. In addition, the Sublingual immunogenicity result with OVA323-339 (mouse models, Coil29 nanofibers, liquid formulations) is given as “did not depend on PASylation for immunogenicity”.
Turning to QLVFNSISARALKAY [VAC], the Kd on I-Ab is 13.5 nM.
For “PADRE ([dA]K[Cha]VAAWTLKA[dA]) [aKXVAAWTLKAa]”, the Kd with I-Ab was 94 nM.
